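Compound exposure: 48 hours, 5 concentrations, 96-well plates. TGI marks complete inhibition of growth.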
Legend:
Experiment in all cases: inhibition of tumour cell growth, NCI panel, 48 h
SNB-75 CNS = test system: SNB-75 CNS
TK-10 renal = test system: TK-10 renal
OVCAR-4 ovarian = test system: OVCAR-4 ovarian
K-562 leukemia = test system: K-562 leukemia
U251 CNS = test system: U251 CNS
CAKI-1 renal = test system: CAKI-1 renal
UACC-62 melanoma = test system: UACC-62 melanoma
MDA-N = test system: MDA-N
T-47D breast = test system: T-47D breast
BT-549 breast = test system: BT-549 breast
NCI-H23 lung = test system: NCI-H23 lung
NCI-H226 lung = test system: NCI-H226 lung
SF-295 CNS = test system: SF-295 CNS
KM12 colon = test system: KM12 colon
RXF 393 renal = test system: RXF 393 renal
CCRF-CEM leukemia = test system: CCRF-CEM leukemia
SK-OV-3 ovarian = test system: SK-OV-3 ovarian
MALME-3M melanoma = test system: MALME-3M melanoma
SF-268 CNS = test system: SF-268 CNS
UO-31 renal = test system: UO-31 renal
OVCAR-8 ovarian = test system: OVCAR-8 ovarian
SR leukemia = test system: SR leukemia
PC-3 prostate = test system: PC-3 prostate
HT29 colon = test system: HT29 colon
SK-MEL-5 melanoma = test system: SK-MEL-5 melanoma
HCT-116 colon = test system: HCT-116 colon
ACHN renal = test system: ACHN renal
OVCAR-3 ovarian = test system: OVCAR-3 ovarian
LOX IMVI melanoma = test system: LOX IMVI melanoma
SNB-19 CNS = test system: SNB-19 CNS
NCI/ADR-RES ovarian = test system: NCI/ADR-RES ovarian
HL-60(TB) leukemia = test system: HL-60(TB) leukemia
HOP-92 NSCLC = test system: HOP-92 NSCLC
UACC-257 melanoma = test system: UACC-257 melanoma
SK-MEL-28 melanoma = test system: SK-MEL-28 melanoma
M14 melanoma = test system: M14 melanoma
HOP-62 NSCLC = test system: HOP-62 NSCLC
NCI-H460 lung = test system: NCI-H460 lung
HCT-15 colon = test system: HCT-15 colon
HS 578T breast = test system: HS 578T breast
786-0 renal = test system: 786-0 renal
MCF7 breast = test system: MCF7 breast
A498 renal = test system: A498 renal
SW-620 colon = test system: SW-620 colon
MOLT-4 leukemia = test system: MOLT-4 leukemia
SF-539 CNS = test system: SF-539 CNS
SN12C renal = test system: SN12C renal
A549 NSCLC = test system: A549 NSCLC
IGROV1 ovarian = test system: IGROV1 ovarian
MDA-MB-231 breast = test system: MDA-MB-231 breast
COLO 205 colon = test system: COLO 205 colon
NCI-H522 lung = test system: NCI-H522 lung
DU-145 prostate = test system: DU-145 prostate
MDA-MB-435 = test system: MDA-MB-435
OVCAR-5 ovarian = test system: OVCAR-5 ovarian
SK-MEL-2 melanoma = test system: SK-MEL-2 melanoma
EKVX NSCLC = test system: EKVX NSCLC
RPMI-8226 leukemia = test system: RPMI-8226 leukemia

O=C(CSc1nnc(-c2ccccn2)s1)N/N=C/c1ccc([N+](=O)[O-])cc1
TGI (SNB-75 CNS): 10.3 µM
TGI (TK-10 renal): 79 µM
TGI (OVCAR-4 ovarian): > 100 µM
TGI (K-562 leukemia): > 100 µM
TGI (U251 CNS): 41.2 µM
TGI (CAKI-1 renal): > 100 µM
TGI (UACC-62 melanoma): > 100 µM
TGI (MDA-N): > 100 µM
TGI (T-47D breast): > 100 µM
TGI (BT-549 breast): > 100 µM
TGI (NCI-H23 lung): > 100 µM
TGI (NCI-H226 lung): > 100 µM
TGI (SF-295 CNS): > 100 µM
TGI (KM12 colon): > 100 µM
TGI (RXF 393 renal): 37.3 µM
TGI (CCRF-CEM leukemia): > 100 µM
TGI (SK-OV-3 ovarian): > 100 µM
TGI (MALME-3M melanoma): > 100 µM
TGI (SF-268 CNS): 71.9 µM
TGI (UO-31 renal): 4.19 µM
TGI (OVCAR-8 ovarian): > 100 µM
TGI (SR leukemia): > 100 µM
TGI (PC-3 prostate): > 100 µM
TGI (HT29 colon): > 100 µM
TGI (SK-MEL-5 melanoma): > 100 µM
TGI (HCT-116 colon): > 100 µM
TGI (ACHN renal): > 100 µM
TGI (OVCAR-3 ovarian): > 100 µM
TGI (LOX IMVI melanoma): > 100 µM
TGI (SNB-19 CNS): 92.5 µM
TGI (NCI/ADR-RES ovarian): > 100 µM
TGI (HL-60(TB) leukemia): > 100 µM
TGI (HOP-92 NSCLC): 42.3 µM
TGI (UACC-257 melanoma): > 100 µM
TGI (SK-MEL-28 melanoma): > 100 µM
TGI (M14 melanoma): > 100 µM
TGI (HOP-62 NSCLC): > 100 µM
TGI (NCI-H460 lung): > 100 µM
TGI (HCT-15 colon): > 100 µM
TGI (HS 578T breast): > 100 µM
TGI (786-0 renal): > 100 µM
TGI (MCF7 breast): > 100 µM
TGI (A498 renal): 75.3 µM
TGI (SW-620 colon): > 100 µM
TGI (MOLT-4 leukemia): > 100 µM
TGI (SF-539 CNS): > 100 µM
TGI (SN12C renal): > 100 µM
TGI (A549 NSCLC): > 100 µM
TGI (IGROV1 ovarian): > 100 µM
TGI (MDA-MB-231 breast): 49.1 µM
TGI (COLO 205 colon): > 100 µM
TGI (NCI-H522 lung): > 100 µM
TGI (DU-145 prostate): 49.5 µM
TGI (MDA-MB-435): > 100 µM
TGI (OVCAR-5 ovarian): > 100 µM
TGI (SK-MEL-2 melanoma): > 100 µM

CC(C)(C)C1=NC(=P(c2ccccc2)(c2ccccc2)c2ccccc2)C(=O)O1
TGI (SNB-75 CNS): 56.5 µM
TGI (EKVX NSCLC): > 100 µM
TGI (TK-10 renal): > 100 µM
TGI (K-562 leukemia): > 100 µM
TGI (U251 CNS): > 100 µM
TGI (CAKI-1 renal): > 100 µM
TGI (UACC-62 melanoma): > 100 µM
TGI (MDA-N): > 100 µM
TGI (T-47D breast): > 100 µM
TGI (BT-549 breast): > 100 µM
TGI (NCI-H23 lung): > 100 µM
TGI (NCI-H226 lung): > 100 µM
TGI (SF-295 CNS): > 100 µM
TGI (KM12 colon): > 100 µM
TGI (RXF 393 renal): > 100 µM
TGI (CCRF-CEM leukemia): > 100 µM
TGI (SK-OV-3 ovarian): > 100 µM
TGI (MALME-3M melanoma): > 100 µM
TGI (SF-268 CNS): > 100 µM
TGI (UO-31 renal): > 100 µM
TGI (OVCAR-8 ovarian): > 100 µM
TGI (SR leukemia): > 100 µM
TGI (PC-3 prostate): > 100 µM
TGI (HT29 colon): > 100 µM
TGI (SK-MEL-5 melanoma): > 100 µM
TGI (HCT-116 colon): > 100 µM
TGI (ACHN renal): > 100 µM
TGI (LOX IMVI melanoma): > 100 µM
TGI (SNB-19 CNS): > 100 µM
TGI (NCI/ADR-RES ovarian): > 100 µM
TGI (HL-60(TB) leukemia): > 100 µM
TGI (RPMI-8226 leukemia): > 100 µM
TGI (HOP-92 NSCLC): > 100 µM
TGI (UACC-257 melanoma): > 100 µM
TGI (SK-MEL-28 melanoma): > 100 µM
TGI (M14 melanoma): > 100 µM
TGI (HOP-62 NSCLC): > 100 µM
TGI (HS 578T breast): > 100 µM
TGI (786-0 renal): > 100 µM
TGI (MCF7 breast): > 100 µM
TGI (A498 renal): > 100 µM
TGI (SW-620 colon): > 100 µM
TGI (MOLT-4 leukemia): > 100 µM
TGI (SN12C renal): > 100 µM
TGI (A549 NSCLC): > 100 µM
TGI (IGROV1 ovarian): > 100 µM
TGI (MDA-MB-231 breast): > 100 µM
TGI (COLO 205 colon): > 100 µM
TGI (NCI-H522 lung): 90.8 µM
TGI (DU-145 prostate): > 100 µM
TGI (MDA-MB-435): > 100 µM
TGI (OVCAR-5 ovarian): > 100 µM
TGI (SK-MEL-2 melanoma): > 100 µM
